For eight cell lines, relative viability results are on record in the supplement of paper PMC10307832.

Compound in assay [1]: CC(C)(C)c1cc(NC(=O)Nc2ccc(-c3cn4c(n3)sc3cc(OCCN5CCOCC5)ccc34)cc2)no1 [Quizartinib] + NC(=O)Nc1cc(-c2cccc(F)c2)sc1C(=O)N[C@H]1CCCNC1 [AZD7762] (partner 0.2 µM)
The experiment in a line: relative viability (nuclei count vs DMSO), 5 days (fraction); higher = more cells survive. The procedure, abridged: (§1)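 Lung cancer cell lines in 1536-well plates were dosed by pin tool the day after seeding, either with one drug alone or with a fixed anchor-drug dose plus five library-drug doses (not always all listed) in √10 steps. After 5 days, cells were fixed and their nuclei stained in one step (final 0.05% Triton X-100, 1% formaldehyde, 1 ug/ml Hoechst), then counted on 4× images. Relative viability is the nuclei count in treated wells divided by that in vehicle wells. Values are medians of duplicate plates.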

Compound in assay [2]: CC(C)(C)c1cc(NC(=O)Nc2ccc(-c3cn4c(n3)sc3cc(OCCN5CCOCC5)ccc34)cc2)no1 [Quizartinib] + O=C(CCCCCCC(=O)Nc1ccccc1)NO [Vorinostat] (partner 1 µM)
Described as above. The procedure, abridged: as §1

Consider EPLC-272H, for which the relative viability in assay [1] (first compound 0.001 µM) stood at 0.287; in assay [1] (first compound 0.003162 µM), 0.325; in assay [1] (first compound 0.01 µM), 0.258; in assay [1] (first compound 0.03162 µM), 0.208; in assay [1] (first compound 0.1 µM) it was 0.231; in assay [2] (first compound 0.001 µM) it was 0.427. Further, the relative viability was 0.337 in assay [2] (first compound 0.003162 µM), 0.484 in assay [2] (first compound 0.01 µM), 0.58 in assay [2] (first compound 0.03162 µM) and 0.692 in assay [2] (first compound 0.1 µM).
As to H3255, the relative viability in assay [1] (first compound 0.001 µM) is 0.905; in assay [1] (first compound 0.003162 µM) it was 0.894; in assay [1] (first compound 0.01 µM) it was 0.911; in assay [1] (first compound 0.03162 µM) it was 0.911; in assay [1] (first compound 0.1 µM) it was 1.03; in assay [2] (first compound 0.003162 µM), 0.744. For the same cell line, the relative viability in assay [2] (first compound 0.01 µM) stood at 0.732; in assay [2] (first compound 0.03162 µM), 0.808; in assay [2] (first compound 0.1 µM), 0.836.
Turning to HARA, the relative viability amounted to 0.401 in assay [1] (first compound 0.001 µM); 0.193 in assay [1] (first compound 0.003162 µM); 0.515 in assay [1] (first compound 0.01 µM); 0.26 in assay [1] (first compound 0.03162 µM); 0.334 in assay [1] (first compound 0.1 µM); 0.468 in assay [2] (first compound 0.001 µM). Besides, the relative viability in assay [2] (first compound 0.003162 µM) came to 0.47; in assay [2] (first compound 0.01 µM) it was 0.553; in assay [2] (first compound 0.03162 µM) it was 0.677; in assay [2] (first compound 0.1 µM), 0.426.
In the case of HCC-15, the relative viability was 1.35 in assay [1] (first compound 0.001 µM); 1.13 in assay [1] (first compound 0.003162 µM); 0.951 in assay [1] (first compound 0.01 µM); 1.14 in assay [1] (first compound 0.03162 µM); 0.958 in assay [1] (first compound 0.1 µM); 0.747 in assay [2] (first compound 0.001 µM). In addition, the relative viability was 0.799 in assay [2] (first compound 0.003162 µM), 0.882 in assay [2] (first compound 0.01 µM), 0.823 in assay [2] (first compound 0.03162 µM) and 0.832 in assay [2] (first compound 0.1 µM).
Take HCC-44: the relative viability worked out at 0.976 in assay [1] (first compound 0.001 µM); 1.04 in assay [1] (first compound 0.003162 µM); 0.988 in assay [1] (first compound 0.01 µM); 1.02 in assay [1] (first compound 0.03162 µM); 1.02 in assay [1] (first compound 0.1 µM); 1.23 in assay [2] (first compound 0.001 µM). Further, the relative viability in assay [2] (first compound 0.003162 µM) was determined as 1.09; in assay [2] (first compound 0.01 µM), 1.13; in assay [2] (first compound 0.03162 µM), 1.21; in assay [2] (first compound 0.1 µM), 1.11.
Turning to HCC-78, the relative viability in assay [1] (first compound 0.001 µM) amounted to 0.671; in assay [1] (first compound 0.003162 µM) it was 0.805; in assay [1] (first compound 0.01 µM), 0.539; in assay [1] (first compound 0.03162 µM), 0.535; in assay [1] (first compound 0.1 µM) it was 0.777; in assay [2] (first compound 0.001 µM), 0.453. Also, the relative viability in assay [2] (first compound 0.003162 µM) is 0.44; in assay [2] (first compound 0.01 µM), 0.445; in assay [2] (first compound 0.03162 µM), 0.419; in assay [2] (first compound 0.1 µM), 0.445.
Turning to HCC-366, the relative viability in assay [1] (first compound 0.001 µM) is 0.272; in assay [1] (first compound 0.003162 µM) it was 0.181; in assay [1] (first compound 0.01 µM), 0.285; in assay [1] (first compound 0.03162 µM) it was 0.119; in assay [1] (first compound 0.1 µM), 0.199; in assay [2] (first compound 0.001 µM), 0.307. For the same cell line, the relative viability in assay [2] (first compound 0.003162 µM) is 0.381; in assay [2] (first compound 0.01 µM), 0.302; in assay [2] (first compound 0.03162 µM), 0.243; in assay [2] (first compound 0.1 µM), 0.386.
HCC-827: the relative viability in assay [1] (first compound 0.001 µM) was found to be 0.344; in assay [1] (first compound 0.003162 µM), 0.196; in assay [1] (first compound 0.03162 µM), 0.177; in assay [1] (first compound 0.1 µM) it was 0.247; in assay [2] (first compound 0.001 µM), 0.797; in assay [2] (first compound 0.003162 µM), 0.881. Also, the values for the relative viability in assay [2] (first compound 0.03162 µM) and in assay [2] (first compound 0.1 µM) were 0.724 and 0.886, respectively.
